These results are taken from paper PMC9862305 (Plants, 2023).

Converted amounts (≈) assume the structure as drawn. Read-outs that look alike come from different tables or passages of the source.

The target in assay [1] is T1, Acetylcholinesterase (AChE) from Electrophorus electricus (Electrophorus electricus, UniProt O42275).
T1 construct: purchased Sigma-Aldrich type VI-S (catalogue number not given)
Put plainly: biochemical. The method, then:
(§1) The cholinesterase inhibitory potentials of the isolated compounds were evaluated via a spectrophotometric approach, which was adapted by Ellman’s method. […] Enzyme inhibition is a beneficial approach in order to evaluate the pharmacological potential of herbal remedies and pure substances. The inhibition of the AChE and BChE enzymes has been linked to the alleviation of symptoms associated with memory impairment in AD [10]. […] Methoxylation may decrease or increase activity depending on the type of flavonoids (flavones, flavanones, or isoflavones). […] Moreover, the hydrogenation of the double bond next to the carbonyl carbon in the structure of flavanones also decreases their affinity for cholinesterase inhibitory activity. However, there are some exceptions to the aforementioned observation of structure–activity relationship in the literature.
(§2) Acetylcholinesterase (AchE) from Electrophorus electricus (electrical eels, type VI-S, 200–1000 unit/mg), Butyrylcholinesterase from equine serum (lyophilized powder ≥ 500 units/mg protein), substrate acetylthiocholine iodide (ATCI), S-butyrylthiocholine iodide (BTCI), sodium phosphate monobasic, and sodium phosphate dibasic were purchased from Sigma-Aldrich (St. Louis, MO, USA). The coloring agent 5,5-dithio-bis-[2-nitrobenzoic acid] (DTNB), and β-sitosterol were obtained from Acros Organics (Acros Organics, NJ, USA). […] Silica gel (Kieselgel 60, 230–400 mesh atm) was purchased from Merck (Darmstadt, Germany). The solvents were of analytical grade and used as received.
(§3) Each run was carried out in triplicate on three consecutive days. Anti-BChE assays were performed using the same procedures described above but using BChE from equine serum (lyophilized powder ≥ 500 units/mg protein) instead of AChE and BTCI instead of ACTI. The final absorbance of each tested sample was calculated by subtracting the absorbance of their respective blank without enzyme addition. […] Then, the IC50 values of all tested samples and standards were calculated from the curve of the % inhibition versus concentration. (1) % Inhibition=Abs −ve control−Abs test sample/Abs −ve control×100

Assay [2] deals with T2, Butyrylcholinesterase from equine serum (Equus caballus, UniProt P81908).
T2 construct: using BChE from equine serum (lyophilized powder ≥ 500 units/mg protein); purchased Sigma-Aldrich; host or cells: equine serum
T2 sequence (P81908 whole entry): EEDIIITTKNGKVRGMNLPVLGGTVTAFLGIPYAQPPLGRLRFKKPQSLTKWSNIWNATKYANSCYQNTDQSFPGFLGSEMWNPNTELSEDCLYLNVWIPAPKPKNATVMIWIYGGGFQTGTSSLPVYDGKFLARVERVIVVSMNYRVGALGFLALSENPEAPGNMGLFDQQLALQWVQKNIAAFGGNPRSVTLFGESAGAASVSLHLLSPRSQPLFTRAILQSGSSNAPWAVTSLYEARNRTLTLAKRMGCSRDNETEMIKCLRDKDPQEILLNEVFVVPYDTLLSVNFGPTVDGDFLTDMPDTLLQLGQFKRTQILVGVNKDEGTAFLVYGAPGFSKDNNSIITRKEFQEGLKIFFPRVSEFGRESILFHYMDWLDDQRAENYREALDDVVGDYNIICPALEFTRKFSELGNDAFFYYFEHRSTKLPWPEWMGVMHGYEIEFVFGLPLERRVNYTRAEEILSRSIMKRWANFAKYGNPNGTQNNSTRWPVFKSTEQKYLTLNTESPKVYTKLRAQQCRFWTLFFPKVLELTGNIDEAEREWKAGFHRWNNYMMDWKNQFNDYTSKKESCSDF
Kind of assay: biochemical. The method, then:
as §1, §2, §3

The subject of a further assay is AChE. To be noted: cited from earlier work; for IC50 (AChE inhibitory activity): individual compound.
The test system of a further assay is BChE. To be noted: cited from earlier work.
[3] abbreviates: isolated compounds, Table 4, read-out: AChE (IC50).
[4] abbreviates: read-out: AChE (IC50) µg/mL (converted).
[5] abbreviates: AChE (IC50) µM, isolated compounds, Table 4.
[6] abbreviates: AChE (IC50) µg/mL, isolated compounds, Table 4.
Where [7] appears, read: BChE (IC50) µM, isolated compounds, Table 4.
The mark [8] stands for this setting: BChE (IC50) µg/mL, isolated compounds, Table 4.
The mark [9] stands for this setting: luteolin isolated from Globularia meridionalis.

T1 sequence (O42275 24-633): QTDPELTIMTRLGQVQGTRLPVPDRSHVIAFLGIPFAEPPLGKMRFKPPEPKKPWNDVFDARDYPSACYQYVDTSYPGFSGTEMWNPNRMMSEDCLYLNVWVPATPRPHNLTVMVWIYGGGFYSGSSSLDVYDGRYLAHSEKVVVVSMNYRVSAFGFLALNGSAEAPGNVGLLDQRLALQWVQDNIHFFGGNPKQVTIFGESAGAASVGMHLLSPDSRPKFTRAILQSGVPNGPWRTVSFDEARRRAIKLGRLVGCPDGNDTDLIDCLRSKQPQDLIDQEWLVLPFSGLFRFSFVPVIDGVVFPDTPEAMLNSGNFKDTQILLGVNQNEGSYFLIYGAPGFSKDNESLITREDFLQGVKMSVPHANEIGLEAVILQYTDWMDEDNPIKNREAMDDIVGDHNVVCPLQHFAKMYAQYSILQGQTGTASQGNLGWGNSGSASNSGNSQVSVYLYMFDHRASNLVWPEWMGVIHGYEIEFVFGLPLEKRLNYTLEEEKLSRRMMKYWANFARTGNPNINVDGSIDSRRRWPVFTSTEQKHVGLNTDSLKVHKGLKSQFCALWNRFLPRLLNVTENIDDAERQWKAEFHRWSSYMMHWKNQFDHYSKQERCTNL

`CCCCCCCCCCCCCCCCCCCCOC(=O)CCCCCCCCCCCCCCCCCCC` [Compound 1, Arachidyl arachidate]: the IC50 was 248.6 ± 2.24 µM in assay [1] (setting [3]), 249 µM in assay [1] (setting [4]) and over 253 µM in assay [2] (read-out: BChE (IC50) µg/mL).

In the case of `O=c1cc(-c2ccc(O)c(O)c2)oc2cc(O)cc(O)c12` [Compound 2, Luteolin], the IC50 was 20.5 ± 1.1 µM in assay [1] (setting [5]); 20.5 µM in assay [1] (setting [6]); 46.2 ± 2.2 µM in assay [2] (setting [7]); 46.2 µM in assay [2] (setting [8]); 17.3 ± 0.23 µM with AChE (luteolin isolated from Rhizoma drynariae, read-out: AChE inhibition potential). The “IC50 for AChE” value with AChE (setting [9]) was 25.2 ± 0.4 µg/mL. Besides, the “IC50 for BuChE” value in the assay with BChE (setting [9]) is listed as 37.2 ± 0.5 µg/mL.

As for `CC[C@H](CC[C@@H](C)[C@H]1CC[C@H]2[C@@H]3CC=C4C[C@@H](O)CC[C@]4(C)[C@H]3CC[C@]12C)C(C)C` [Compound 3, β-sitosterol], the IC50 in assay [1] (setting [5]) is 137 ± 8.66 µM; in assay [1] (setting [6]), 137 µM; in assay [2] (setting [7]) it was 157 ± 7.26 µM; in assay [2] (setting [8]), 157 µM. Also, the “IC50 (AChE inhibitory activity)” value with AChE is 55 µg/mL (≈ 133 µM).

Take `CC[C@H](/C=C/[C@@H](C)[C@H]1CC[C@H]2[C@@H]3CC=C4C[C@@H](O)CC[C@]4(C)[C@H]3CC[C@]12C)C(C)C` [Compound 4, Stigmasterol]: the IC50 (AChE inhibitory activity) with AChE is 63 µg/mL (≈ 153 µM).

Turning to `O=C(O)/C=C/c1ccccc1` [Compound 5, Cinnamic acid], the IC50 was 373 ± 16.4 µM in assay [2] (setting [7]) and 373 µM in assay [2] (setting [8]).

Regarding `O=C(O)C=Cc1ccc(O)cc1` [Compound 6, 4-Hydroxycinnamic acid], the IC50 in assay [1] (setting [5]) was 43.4 ± 0.61 µM; in assay [1] (setting [6]), 43.4 µM; in assay [2] (setting [7]), 409 ± 14.8 µM; in assay [2] (setting [8]), 409 µM.

Turning to `O=Cc1ccc(CO)o1` [Compound 7], the results for the IC50 in assay [1] (setting [3]), in assay [1] (setting [4]) and in assay [2] (read-out: BChE (IC50) µg/mL) were 158 ± 3.49 µM, 158 µM and over 793 µM, respectively.

As for `COc1ccc(-c2cc(=O)c3c(O)cc(O[C@@H]4O[C@H](CO)[C@H](O)[C@H](O)[C@H]4O)cc3o2)cc1` [acacetin-7-O-beta-D-galactopyranoside], the IC50 with AChE (read-out: IC50) is 6.7 µM.

Take `COc1ccc(-c2cc(=O)c3c(O)cc(O)cc3o2)cc1` [acacetin]: the IC50 with AChE (read-out: IC50) is 65.3 µM.

For `O=c1cc(-c2ccc(O)cc2)oc2cc(O)cc(O)c12` [apigenin], the IC50 with AChE (read-out: IC50 (AChE)) is 34.4 ± 2.41 µM.

As for `O=c1cc(-c2ccccc2)oc2cc(O)c(O)c(O)c12` [baicalein], in the assay on AChE (read-out: IC50 (AChE)), the IC50 was 46 ± 3.44 µM.

On to Omifoate A [reference compound], for which the “IC50 for AChE” value with AChE is 6.51 µg/mL. Further, the “IC50 for BChE” value in the assay on BChE is on record as 9.07 µg/mL.
